The text below walks through data of patent US20230382924A1, “MODULATORS OF CYSTIC FIBROSIS TRANSMEMBRANE CONDUCTANCE REGULATOR” (VERTEX PHARMACEUTICALS INCORPORATED, priority 2020, published 2023).

pEC50: −log10 of the molar value.

Assay [1] concerns the target T1, CFTR (Homo sapiens, UniProt P13569). Nature of the assay: Membrane Potential Dye, Enteroid Assay B. The class given is cell-based. The note with it: Table 9; for pEC50: read-out: Ent. B EC50. The procedure:
Base medium (ADF+++) consisted of Advanced DMEM/Ham's F12, 2 mM Glutamax, 10 mM HEPES, […] penicillin/streptomycin.
Bath 1 Buffer consisted of 1 mM MgCl2, 160 mM NaCl, 4.5 mM KCl, 10 mM HEPES, 10 mM Glucose, 2 mM CaCl2).
Chloride Free Buffer consisted of 1 mM Magnesium Gluconate, 2 mM Calcium Gluconate, 4.5 mM Potassium Gluconate, 160 mM Sodium Gluconate, 10 mM HEPES, 10 mM Glucose.
Bath 1 Dye Solution consisted of Bath 1 Buffer, 0.04% Pluronic F127, 20 μM Methyl Oxonol, 30 μM CaCCinh-A01, 30 μM Chicago Sky Blue.
Chloride Free Dye Solution consisted of Chloride Free Buffer, 0.04% Pluronic F127, 20 μM Methyl Oxonol, 30 μM CaCCinh-A01, 30 μM Chicago Sky Blue.
3. Enteroid Cell Harvesting and Seeding
Cells were recovered in cell recovery solution, collected by centrifugation at 650 rpm for 5 min at 4° C., resuspended in TryPLE and incubated for 5 min at 37° C. Cells were then collected by centrifugation at 650 rpm for 5 min at 4° C. and resuspended in IEMM containing 10 μM ROCK inhibitor (RI).
5. Membrane Potential Dye, Enteroid Assay B
Briefly, cells were washed 5 times in Bath 1 Buffer. Bath 1 Dye Solution was added and the cells were incubated for 25 min at room temperature. Following dye incubation, cells were washed 3 times in Chloride Free Dye Solution. Chloride transport was initiated by addition of Chloride Free Dye Stimulation Solution and the fluorescence signal was read for 15 min.

For assay [2], the target named is T1, CFTR. The assay is described as follows: Membrane Potential Dye, Enteroid Assay A. The class given is cell-based. The note with it: Table 8; for pEC50: read-out: Ent. A EC50. Put shortly:
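Enteroid cells were loaded with methyl oxonol membrane potential dye (plus CaCCinh-A01 and Chicago Sky Blue) for 25 min at room temperature. Chloride transport was started by switching to chloride-free gluconate stimulation solution, with fluorescence read for 15 min. Activity was expressed as % of a triple-combination CFTR modulator control (3 μM, 3 μM, 300 nM acute).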

The pEC50 is the negative decadic logarithm of the EC50, by convention in mol/L.

T1 sequence (P13569 with tags, fused parts or gaps DEL508-508): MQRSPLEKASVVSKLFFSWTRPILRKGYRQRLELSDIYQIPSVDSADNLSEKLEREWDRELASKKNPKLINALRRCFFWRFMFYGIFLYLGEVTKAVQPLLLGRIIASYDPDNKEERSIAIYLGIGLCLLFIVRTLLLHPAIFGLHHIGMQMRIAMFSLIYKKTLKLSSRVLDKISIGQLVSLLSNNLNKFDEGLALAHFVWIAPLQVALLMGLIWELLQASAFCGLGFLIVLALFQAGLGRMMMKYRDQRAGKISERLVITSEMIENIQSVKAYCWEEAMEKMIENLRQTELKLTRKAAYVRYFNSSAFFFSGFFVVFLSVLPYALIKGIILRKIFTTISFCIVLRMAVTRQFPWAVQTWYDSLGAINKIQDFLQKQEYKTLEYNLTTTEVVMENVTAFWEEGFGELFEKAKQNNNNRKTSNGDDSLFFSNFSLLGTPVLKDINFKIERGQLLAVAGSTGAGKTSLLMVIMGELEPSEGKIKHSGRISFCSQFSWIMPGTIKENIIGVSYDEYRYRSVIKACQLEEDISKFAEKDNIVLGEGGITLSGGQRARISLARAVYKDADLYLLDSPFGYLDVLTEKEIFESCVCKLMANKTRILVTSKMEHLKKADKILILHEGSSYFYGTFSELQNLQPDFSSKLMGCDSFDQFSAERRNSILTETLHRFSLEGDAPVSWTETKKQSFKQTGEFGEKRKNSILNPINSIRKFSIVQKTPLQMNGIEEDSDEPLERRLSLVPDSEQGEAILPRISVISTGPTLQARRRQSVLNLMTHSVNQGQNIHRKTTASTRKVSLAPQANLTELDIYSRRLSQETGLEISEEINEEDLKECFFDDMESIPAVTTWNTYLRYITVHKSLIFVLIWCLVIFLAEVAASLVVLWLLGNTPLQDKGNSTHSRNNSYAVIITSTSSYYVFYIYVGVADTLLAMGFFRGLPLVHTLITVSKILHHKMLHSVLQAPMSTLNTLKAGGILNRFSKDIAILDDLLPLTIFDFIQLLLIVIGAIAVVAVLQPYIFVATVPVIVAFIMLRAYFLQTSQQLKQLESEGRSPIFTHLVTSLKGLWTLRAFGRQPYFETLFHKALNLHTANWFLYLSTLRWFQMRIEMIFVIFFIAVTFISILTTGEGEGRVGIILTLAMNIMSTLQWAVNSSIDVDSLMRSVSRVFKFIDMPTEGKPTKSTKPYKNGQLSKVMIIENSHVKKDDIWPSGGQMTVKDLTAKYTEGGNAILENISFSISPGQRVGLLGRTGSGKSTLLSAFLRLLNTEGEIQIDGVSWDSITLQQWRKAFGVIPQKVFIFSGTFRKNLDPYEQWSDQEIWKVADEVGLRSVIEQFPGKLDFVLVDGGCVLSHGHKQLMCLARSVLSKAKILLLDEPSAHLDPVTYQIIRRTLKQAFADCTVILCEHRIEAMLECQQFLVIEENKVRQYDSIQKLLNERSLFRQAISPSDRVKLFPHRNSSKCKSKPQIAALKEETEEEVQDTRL

Consider `C=CCCCCC[C@@H]1COc2cc(-c3ccccc3C=C)nc(n2)NS(=O)(=O)c2cccc(c2)C(=O)N1` [Compound 220], for which, on CFTR [1], the “Ent. B Max Activity” value is listed as “+++ (+++ is >60%)” and the pEC50 was greater than 6.00. As to `C=CCCCC[C@@H]1COc2cc(-c3ccccc3C=C)nc(n2)NS(=O)(=O)c2cccc(c2)C(=O)N1` [Compound 221], on CFTR [1], the “Ent. B Max Activity” value is reported as “+++ (+++ is >60%)” and the pEC50 is greater than 6.00. In the case of `Cc1cccc(C)c1-c1cc2nc(n1)NS(=O)(=O)c1cccc(c1)C(=O)N[C@H](C)[C@H](C)O2` [Compound 484], at CFTR [1], the “Ent. B Max Activity” value is “++ (++ is 30-60%)” and the pEC50 is 4.52 to 5.52.

`O=C1N[C@@H]2CCCCCCCc3ccccc3-c3cc(nc(n3)NS(=O)(=O)c3cccc1c3)OC2` [Compound 217]: on CFTR [1], the “Ent. B Max Activity” value was “+++ (+++ is >60%)” and the pEC50 was greater than 6.00.

On to `Cc1cccc(CC2CCCCC2)c1-c1cc2nc(n1)NS(=O)(=O)c1cccc(c1)C(=O)N[C@H](CC(C)C)CO2` [Compound 387], for which, on CFTR [1], the “Ent. B Max Activity” value is given as “+++ (+++ is >60%)” and the pEC50 was greater than 6.00. In the same order, the values of `O=C1N[C@@H]2CCCCC/C=C/c3ccccc3-c3cc(nc(n3)NS(=O)(=O)c3cccc1c3)OC2` [Compound 218] are “+++ (+++ is >60%)” and greater than 6.00. The corresponding values for `Cc1cccc(C=C2CCCCC2)c1-c1cc2nc(n1)NS(=O)(=O)c1cccc(c1)C(=O)N[C@H](CC(C)C)CO2` [Compound 388] are “++ (++ is 30-60%)” and greater than 6.00. For the molecule `Cc1cccc2c1-c1cc3nc(n1)NS(=O)(=O)c1cccc(c1)C(=O)N[C@H](CCCCCCCC2)CO3` [Compound 213], on CFTR [1], the “Ent. B Max Activity” value was “+++ (+++ is >60%)” and the pEC50 was greater than 6.00. In the same order, the values of `O=C1N[C@@H]2CCCCCCc3ccccc3-c3cc(nc(n3)NS(=O)(=O)c3cccc1c3)OC2` [Compound 216] are “+++ (+++ is >60%)” and greater than 6.00. The corresponding values for `Cc1cccc(C)c1-c1cc2nc(n1)NS(=O)(=O)c1cc(n(C)n1)C(=O)N[C@H](CC(C)(C)C)CO2` [Compound 358] are “+++ (+++ is >60%)” and greater than 6.00. The corresponding values for `Cc1cccc(C)c1-c1cc2nc(n1)NS(=O)(=O)c1cc(n(C)n1)C(=O)NCC(CC(C)C)(CC(C)C)CO2` [Compound 173] are “++ (++ is 30-60%)” and 5.52 to 6.00. Turning to `Cc1cccc(C)c1-c1cc2nc(n1)NS(=O)(=O)c1cccc(c1)C(=O)NC[C@@H](CC(C)C)CO2` (stereo in doubt) [Compound 367], on CFTR [1], the “Ent. B Max Activity” value is “+++ (+++ is >60%)” and the pEC50 is greater than 6.00. The corresponding values for `Cc1cccc(C)c1-c1cc2nc(n1)NS(=O)(=O)c1cccc(c1)C(=O)NC[C@H](CC(C)C)CO2` (stereo in doubt) [Compound 368] are “++ (++ is 30-60%)” and greater than 6.00.

On to `Cc1cccc(C)c1-c1cc2nc(n1)NS(=O)(=O)c1cccc(c1)C(=O)N[C@H](C)[C@H](C)O2` [Compound 483], for which, at CFTR [1], the “Ent. B Max Activity” value is listed as “+ (+ is <30%)” and the pEC50 was 5.52 to 6.00. As to `Cc1cccc(C)c1-c1cc2nc(n1)NS(=O)(=O)c1cccc(c1)C(=O)NC[C@H](c1ccc(C[Si](C)(C)C)cc1)O2` (stereo in doubt) [Compound 126], the pEC50 on CFTR [1] was greater than 6.00.

Turning to `Cc1cccc(C)c1-c1cc2nc(n1)NS(=O)(=O)c1cccc(c1)C(=O)NC[C@H](c1ccc(C[Si](C)(C)C)cc1)O2` (stereo in doubt) [Compound 125], the pEC50 at CFTR [1] was greater than 6.00. Take `Cc1cccc(C)c1-c1cc2nc(n1)NS(=O)(=O)c1cc(n(C)n1)C(=O)N[C@H](C)C(c1ccc(C(C)(C)C)cc1)O2` (stereo in doubt) [Compound 172]: on CFTR [1], the “Ent. B Max Activity” value is given as “++ (++ is 30-60%)” and the negative logarithm of the EC50 (pEC50) is greater than 6.00.

Regarding `Cc1cccc(C)c1-c1cc2nc(n1)NS(=O)(=O)c1cc(no1)C(=O)N[C@H](CC(C)(C)C)CO2` [Compound 357], on CFTR [1], the “Ent. B Max Activity” value was “++ (++ is 30-60%)” and the pEC50 was 5.52 to 6.00. For `O=C1N[C@@H]2CCCCCCCCc3ccccc3-c3cc(nc(n3)NS(=O)(=O)c3cccc1c3)OC2` [Compound 37, (18R)-30-Oxa-26λ^6-thia-19,27,29,32-tetraazapentacyclo[16.11.2.13,28.121,25.04,9]tritriaconta-1,3(32),4(9),5,7,21(33),22,24,28-nonaene-20,26,26-trione], on CFTR [1], the “Ent. B Max Activity” value is “+++ (+++ is >60%)” and the pEC50 was greater than 6.00. The corresponding values for `Cc1cccc(/C=C/C2CC2)c1-c1cc2nc(n1)NS(=O)(=O)c1cccc(c1)C(=O)N[C@H](CC(C)C)CO2` [Compound 53, (11R)-6-[2-[(E)-2-Cyclopropylvinyl]-6-methyl-phenyl]-11-isobutyl-2,2-dioxo-9-oxa-2λ^6-thia-3,5,12,19-tetrazatricyclo[12.3.1.14,8]nonadeca-1(18),4(19),5,7,14,16-hexaen-13-one] are “+++ (+++ is >60%)” and greater than 6.00. As to `Cc1cccc(C)c1-c1cc2nc(n1)NS(=O)(=O)c1cccc(c1)C(=O)NC[C@H](c1ccc(CC[Si](C)(C)C)cc1)O2` (stereo in doubt) [Compound 124], the pEC50 at CFTR [1] was greater than 6.00. As for `Cc1cccc(CCC(C)C)c1-c1cc2nc(n1)NS(=O)(=O)c1cccc(c1)C(=O)N[C@H](CC(C)C)CO2` [Compound 389], on CFTR [1], the “Ent. B Max Activity” value is reported as “+++ (+++ is >60%)” and the pEC50 is greater than 6.00. Turning to `Cc1cccc(O)c1-c1cc2nc(n1)NS(=O)(=O)c1cccc(c1)C(=O)N[C@H](CC(C)C)CO2` [Compound 163], on CFTR [1], the “Ent. B Max Activity” value is listed as “++ (++ is 30-60%)” and the pEC50 was 4.52 to 5.52.

As to `Cc1cccc(/C=C/C(C)C)c1-c1cc2nc(n1)NS(=O)(=O)c1cccc(c1)C(=O)N[C@H](CC(C)C)CO2` [Compound 390], on CFTR [1], the “Ent. B Max Activity” value is “+++ (+++ is >60%)” and the pEC50 was greater than 6.00.

Consider `Cc1cccc(C)c1-c1cc2nc(n1)NS(=O)(=O)c1cccc(c1)C(=O)N[C@H](CCC(C)(C)O)CO2` [Compound 67, (11R)-6-(2,6-Dimethylphenyl)-11-(3-hydroxy-3-methylbutyl)-2,2-dioxo-9-oxa-2λ^6-thia-3,5,12,19-tetrazatricyclo[12.3.1.14,8]nonadeca-1(18),4(19),5,7,14,16-hexaen-13-one], for which, on CFTR [1], the “Ent. B Max Activity” value was “+ (+ is <30%)” and the pEC50 was 4.52 to 5.52.

With `Cc1cccc(C)c1-c1cc2nc(n1)NS(=O)(=O)c1cccc(c1)C(=O)NCc1cc(Cl)ccc1O2` [Compound 295], on CFTR [1], the “Ent. B Max Activity” value was “+++ (+++ is >60%)” and the negative-log EC50 (pEC50) is greater than 6.00. With `Cc1cccc(C)c1-c1cc2nc(n1)NS(=O)(=O)c1cccc(c1)C(=O)N[C@H](CC(C)(C)O)CO2` [Compound 65], on CFTR [1], the “Ent. B Max Activity” value is “++ (++ is 30-60%)” and the pEC50 was 4.52 to 5.52. In the same order, the values of `Cc1cccc(C)c1-c1cc2nc(n1)NS(=O)(=O)c1cc(nn1C)C(=O)N[C@H](CC(C)(C)C)CO2` [Compound 77, (10R)-15-(2,6-Dimethylphenyl)-10-(2,2-dimethylpropyl)-5-methyl-3,3-dioxo-12-oxa-3λ^6-thia-2,5,6,9,16,17-hexazatricyclo[11.3.1.14,7]octadeca-1(17),4(18),6,13,15-pentaen-8-one] are “++ (++ is 30-60%)” and 5.52 to 6.00.

In the case of `C=CCCCCCC[C@@H]1COc2cc(-c3c(C)cccc3C=C)nc(n2)NS(=O)(=O)c2cccc(c2)C(=O)N1` [Compound 215], at CFTR [1], the “Ent. B Max Activity” value is given as “++ (++ is 30-60%)” and the pEC50 is greater than 6.00. On to `Cc1cccc(C)c1-c1cc2nc(n1)NS(=O)(=O)c1cccc(c1)C(=O)NC[C@H](c1ccc(CC[Si](C)(C)C)cc1)O2` (stereo in doubt) [Compound 123], for which, on CFTR [1], the pEC50 is greater than 6.00. Consider `Cc1cccc(CCC2CC2)c1-c1cc2nc(n1)NS(=O)(=O)c1cccc(c1)C(=O)N[C@H](CC(C)C)CO2` [Compound 391], for which, at CFTR [1], the “Ent. B Max Activity” value is “+++ (+++ is >60%)” and the pEC50 was greater than 6.00. As for `CC(C)C[C@@H]1COc2cc(C3(C)CC3)nc(n2)NS(=O)(=O)c2cccc(c2)C(=O)N1` [Compound 164], the “Ent. B Max Activity” value on CFTR [1] is listed as “+ (+ is <30%)”. Turning to `Cc1cccc(C)c1-c1cc2nc(n1)NS(=O)(=O)c1cccc(c1)C(=O)NCC(c1ccc(C#N)cc1)O2` (stereo not drawn) [Compound 250], at CFTR [2], the “Ent. A Max Activity” value is recorded as “+++ (+++ is >60%)” and the pEC50 was greater than 6.00. For `COCCOc1ccc(C2CNC(=O)c3cccc(c3)S(=O)(=O)Nc3nc(cc(-c4c(C)cccc4C)n3)O2)cc1` (stereo not drawn) [Compound 120], the “Ent. A Max Activity” value on CFTR [2] was “+ (+ is <30%)”. Take `CC(C)C[C@@H]1COc2cc(C3C(C)CCCC3C)nc(n2)NS(=O)(=O)c2cccc(c2)C(=O)N1` (stereo partly drawn) [Compound 300]: on CFTR [2], the pEC50 was greater than 6.00.
